IC50 data for 23 compounds are collected here from patent US20180148418A1, “AMIDO-SUBSTITUTED CYCLOHEXANE DERIVATIVES” (Bayer Pharma Aktiengesellschaft, priority 2015, published 2018).

One assay addresses T1, TNKS2 (Homo sapiens, UniProt Q9H2K2).
T1 construct: purchased BPS Bioscience, San Diego, USA 80572 (TNKS2 Histone Ribosylation Assay Kit)
T1 sequence (Q9H2K2 1-1166): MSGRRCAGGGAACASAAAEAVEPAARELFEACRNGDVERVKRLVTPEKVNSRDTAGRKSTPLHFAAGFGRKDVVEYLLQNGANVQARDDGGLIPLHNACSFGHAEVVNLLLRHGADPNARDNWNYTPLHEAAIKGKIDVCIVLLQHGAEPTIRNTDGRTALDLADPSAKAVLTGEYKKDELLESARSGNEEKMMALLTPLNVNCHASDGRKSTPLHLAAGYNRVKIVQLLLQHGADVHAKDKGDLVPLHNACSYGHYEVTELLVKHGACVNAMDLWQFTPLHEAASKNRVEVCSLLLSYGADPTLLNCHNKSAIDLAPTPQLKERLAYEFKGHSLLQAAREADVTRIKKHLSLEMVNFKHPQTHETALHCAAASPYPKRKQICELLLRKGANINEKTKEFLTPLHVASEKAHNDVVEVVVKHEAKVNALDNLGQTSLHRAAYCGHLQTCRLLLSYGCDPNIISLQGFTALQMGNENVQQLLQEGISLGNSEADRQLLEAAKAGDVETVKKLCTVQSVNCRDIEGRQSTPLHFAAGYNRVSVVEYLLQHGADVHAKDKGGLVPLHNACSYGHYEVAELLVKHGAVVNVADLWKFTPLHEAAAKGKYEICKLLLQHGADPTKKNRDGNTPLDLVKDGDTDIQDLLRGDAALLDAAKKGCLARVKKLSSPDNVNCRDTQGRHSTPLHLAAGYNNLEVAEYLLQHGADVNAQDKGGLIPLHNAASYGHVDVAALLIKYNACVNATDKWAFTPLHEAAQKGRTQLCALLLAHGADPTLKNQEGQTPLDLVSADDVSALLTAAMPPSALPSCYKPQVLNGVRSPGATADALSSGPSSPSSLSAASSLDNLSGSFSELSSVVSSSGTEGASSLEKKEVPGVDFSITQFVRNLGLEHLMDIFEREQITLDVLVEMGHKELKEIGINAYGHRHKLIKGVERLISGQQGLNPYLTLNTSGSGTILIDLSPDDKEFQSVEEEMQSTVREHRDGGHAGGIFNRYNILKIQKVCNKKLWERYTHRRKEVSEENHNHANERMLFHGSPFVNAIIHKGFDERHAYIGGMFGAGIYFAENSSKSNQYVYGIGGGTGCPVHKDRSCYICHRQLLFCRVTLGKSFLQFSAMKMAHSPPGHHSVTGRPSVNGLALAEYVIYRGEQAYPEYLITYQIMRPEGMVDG
As to the kind of experiment: TNKS2 Assay B (auto-parsylation, [3H]-NAD+ SPA). The class given is biochemical. To be noted: 6 nM TNKS2, auto-parsylation, over night at room temperature.

For assay [1], the system named is wildtype Wnt signaling cascade. As to the kind of experiment: HEK293 TOP assay (Super TopFlash luciferase reporter, Wnt-3a stimulated). Particulars: Homo sapiens, HEK293, 16 h, HEK293 TOP reporter cells, Wnt3a at EC50, 16 hours. It counts as cell-based. The procedure, abridged: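 Compound series (50 μM down to 15 nM, 3.16-fold) diluted from DMSO 50-fold into CAFTY buffer, pH 7.4, 2 mM Ca^2+, 0.01% BSA, applied to Wnt-3a-stimulated HEK293 TopFlash and FOP reporter lines in parallel. Cells seeded 10000/well 24 h before; luciferase signal measured.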
On the technique in general: A reporter such as luciferase makes a cellular process visible.

Structures are written as SMILES. pIC50: −log10 of the molar value.

As for `Cc1cc(NC(=O)[C@H]2CC[C@H](NC(=O)c3[nH]cnc3C(=O)NCC(C)(C)O)CC2)c(Cl)cc1F` [Example 100, N^5-{trans-4-[(2-chloro-4-fluoro-5-methylphenyl)carbamoyl]cyclohexyl}-N^4-(2-hydroxy-2-methylpropyl)-1H-imidazole-4,5-dicarboxamide], the pIC50 on TNKS2 was 6.96; in assay [1] it was 6.70.
As to `COC(C)(C)CNC(=O)c1nc[nH]c1C(=O)N[C@H]1CC[C@H](C(=O)Nc2cc(C)c(F)cc2Cl)CC1` [Example 101, N^5-{trans-4-[(2-chloro-4-fluoro-5-methylphenyl)carbamoyl]cyclohexyl}-N^4-(2-methoxy-2-methylpropyl)-1H-imidazole-4,5-dicarboxamide], the pIC50 against TNKS2 is 7.00; in assay [1] it was 6.44.
Regarding `Cc1cc(C)n2ncc(C(=O)N[C@H]3CC[C@H](C(=O)Nc4ccncc4Cl)CC3)c2n1` [Example 102, N-{trans-4-[(3-chloropyridin-4-yl)carbamoyl]cyclohexyl}-5,7-dimethylpyrazolo[1,5-a]pyrimidine-3-carboxamide], the pIC50 on TNKS2 was 6.70; in assay [1] it was 6.92.
With `O=C(N[C@H]1CC[C@H](C(=O)Nc2ccncc2Cl)CC1)c1cnc2cccnn12` [Example 103, N-{trans-4-[(3-chloropyridin-4-yl)carbamoyl]cyclohexyl}imidazo[1,2-b]pyridazine-3-carboxamide], the values for the pIC50 (against TNKS2; in assay [1]) were 6.54 and 6.39, respectively.
In the same order, the values of `Cc1cnc2c(C(=O)N[C@H]3CC[C@H](C(=O)Nc4ccncc4Cl)CC3)cnn2c1` [Example 104, N-{trans-4-[(3-chloropyridin-4-yl)carbamoyl]cyclohexyl}-6-methyl pyrazolo[1,5-a]pyrimidine-3-carboxamide] are 7.18 and 7.06.
Take `O=C(N[C@H]1CC[C@H](C(=O)Nc2ccncc2Cl)CC1)c1cnn2cccnc12` [Example 105, N-{trans-4-[(3-chloropyridin-4-yl)carbamoyl]cyclohexyl}pyrazolo[1,5-a]pyrimidine-3-carboxamide]: the pIC50 on TNKS2 was 6.92; in assay [1], 6.62.
In the case of `CCOC(=O)c1cnc2c(C(=O)N[C@H]3CC[C@H](C(=O)Nc4ccc(F)cc4Cl)CC3)cnn2c1` [Example 106, ethyl 3-({trans-4-[(2-chloro-4-fluorophenyl)carbamoyl]cyclohexyl}carbamoyl)pyrazolo[1,5-a]pyrimidine-6-carboxylate], the pIC50 against TNKS2 is 7.82; in assay [1], 6.40.
The corresponding values for `O=C(N[C@H]1CC[C@H](C(=O)Nc2ccc(F)cc2Cl)CC1)c1cnn2ccc(N3CCOCC3)nc12` [Example 107, N-{trans-4-[(2-chloro-4-fluorophenyl)carbamoyl]cyclohexyl}-5-(morpholin-4-yl)pyrazolo[1,5-a]pyrimidine-3-carboxamide] are 7.13 and 6.06.
Turning to `O=C(N[C@H]1CC[C@H](C(=O)Nc2ccc(F)cc2Cl)CC1)c1cnn2ccc(N3CCCC3)nc12` [Example 108], the pIC50 against TNKS2 was 7.22; in assay [1], 6.74.
On to `CN1CCN(c2ccn3ncc(C(=O)N[C@H]4CC[C@H](C(=O)Nc5ccc(F)cc5Cl)CC4)c3n2)CC1` [Example 109], for which the results for the pIC50 (against TNKS2; in assay [1]) were 7.42 and 5.52, respectively.
`COCc1cc(C)n2ncc(C(=O)N[C@H]3CC[C@H](C(=O)Nc4ccc(F)cc4Cl)CC3)c2n1` [Example 110, N-{trans-4-[(2-chloro-4-fluorophenyl)carbamoyl]cyclohexyl}-5-(methoxymethyl)-7-methylpyrazolo[1,5-a]pyrimidine-3-carboxamide]: the pIC50 was 7.07 against TNKS2 and 6.57 in assay [1].
On to `COCc1cc(C)nc2c(C(=O)N[C@H]3CC[C@H](C(=O)Nc4ccc(F)cc4Cl)CC3)cnn12` [Example 111, N-{trans-4-[(2-chloro-4-fluorophenyl)carbamoyl]cyclohexyl}-7-(methoxymethyl)-5-methylpyrazolo[1,5-a]pyrimidine-3-carboxamide], for which the pIC50 on TNKS2 is 6.68; in assay [1] it was 7.14.
In the case of `COCc1cc(C)n2ncc(C(=O)N[C@H]3CC[C@H](C(=O)Nc4c(F)cc(F)cc4Cl)CC3)c2n1` [Example 112, N-{trans-4-[(2-chloro-4,6-difluorophenyl)carbamoyl]cyclohexyl}-5-(methoxymethyl)-7-methylpyrazolo[1,5-a]pyrimidine-3-carboxamide], the pIC50 at TNKS2 is 7.17; in assay [1], 6.72.
Turning to `Cc1nc2c(C(=O)N[C@H]3CC[C@H](C(=O)Nc4ccc(F)cc4Cl)CC3)cnn2c2c1CCC2` [Example 113, N-{trans-4-[(2-chloro-4-fluorophenyl)carbamoyl]cyclohexyl}-5-methyl-7,8-dihydro-6H-cyclopenta[e]pyrazolo[1,5-a]pyrimidine-3-carboxamide], the figures for the pIC50 (at TNKS2; in assay [1]) were 7.28 and 7.03, respectively.
In the same order, the values of `CC(O)CNc1ccc2ncc(C(=O)N[C@H]3CC[C@H](C(=O)Nc4ccc(F)cc4Cl)CC3)n2n1` (stereo partly drawn) [Example 114, N-{trans-4-[(2-chloro-4-fluorophenyl)carbamoyl]cyclohexyl}-6-[(2-hydroxypropyl)amino]imidazo[1,2-b]pyridazine-3-carboxamide] are 6.32 and 5.80.
Turning to `CNC(=O)c1[nH]cnc1C(=O)NC12CCC(C(=O)Nc3ccc(F)cc3Cl)(CC1)CC2` [Example 115, N^4-{4-[(2-chloro-4-fluorophenyl)carbamoyl]bicyclo[2.2.2]oct-1-yl}-N^5-methyl-1H-imidazole-4,5-dicarboxamide], the pIC50 was 6.72 against TNKS2 and 6.74 in assay [1].
Turning to `CNC(=O)c1[nH]cnc1C(=O)NC12CCC(C(=O)Nc3c(F)cc(F)cc3Cl)(CC1)CC2` [Example 116, N^4-{4-[(2-chloro-4,6-difluorophenyl)carbamoyl]bicyclo[2.2.2]oct-1-yl}-N^5-methyl-1H-imidazole-4,5-dicarboxamide], the figures for the pIC50 (against TNKS2; in assay [1]) were 6.23 and 6.48, respectively.
For `O=C(NC12CCC(C(=O)Nc3ccc(F)cc3Cl)(CC1)CC2)c1cnn2cccnc12` [Example 117, N-{4-[(2-chloro-4-fluorophenyl)carbamoyl]bicyclo[2.2.2]oct-1-yl}pyrazolo[1,5-a]pyrimidine-3-carboxamide], the pIC50 was 6.34 at TNKS2 and 6.66 in assay [1].
Turning to `Cc1cc(NC(=O)C23CCC(NC(=O)c4cnn5cccnc45)(CC2)CC3)c(Cl)cc1F` [Example 118, N-{4-[(2-chloro-4-fluoro-5-methylphenyl)carbamoyl]bicyclo[2.2.2]oct-1-yl}pyrazolo[1,5-a]pyrimidine-3-carboxamide], the pIC50 was 7.17 against TNKS2 and 6.52 in assay [1].
`O=C(NC12CCC(C(=O)Nc3c(F)cc(F)cc3Cl)(CC1)CC2)c1cnn2cccnc12` [Example 119, N-{4-[(2-chloro-4,6-difluorophenyl)carbamoyl]bicyclo[2.2.2]oct-1-yl}pyrazolo[1,5-a]pyrimidine-3-carboxamide]: the pIC50 against TNKS2 was 6.21; in assay [1], 6.41.
`O=C(NC12CCC(C(=O)Nc3cnccc3Cl)(CC1)CC2)c1cnn2cccnc12` [Example 120, N-{4-[(4-chloropyridin-3-yl)carbamoyl]bicyclo[2.2.2]oct-1-yl}pyrazolo[1,5-a]pyrimidine-3-carboxamide]: the pIC50 is 6.59 against TNKS2 and 6.85 in assay [1].
As to `O=C(NC12CCC(C(=O)Nc3ccc(F)cc3Cl)(CC1)CC2)c1cnc2cccnn12` [Example 121, N-{4-[(2-chloro-4-fluorophenyl)carbamoyl]bicyclo[2.2.2]oct-1-yl}imidazo[1,2-b]pyridazine-3-carboxamide], the pIC50 was 6.48 against TNKS2 and 7.52 in assay [1].
On to `Cc1cc(NC(=O)C23CCC(NC(=O)c4cnc5cccnn45)(CC2)CC3)c(Cl)cc1F` [Example 122, N-{4-[(2-chloro-4-fluoro-5-methylphenyl)carbamoyl]bicyclo[2.2.2]oct-1-yl}imidazo[1,2-b]pyridazine-3-carboxamide], for which the pIC50 was 6.72 on TNKS2 and 6.33 in assay [1].

Broadly, the pIC50 is the IC50 on a negative log10 scale, so that one unit is a factor of ten.
